# Data as given in article PMC11413964, “Discovery of 1,3-disubstituted prop-2-en-1-one derivatives as inhibitors of neutrophilic inflammation via modulation of MAPK and Akt pathways” (Journal of Enzyme Inhibition and Medicinal Chemistry, 2024).
# Test system: fMLF/cytochalasin B (CB)-activated human neutrophils
# Experiment: Superoxide anion generation (ferricytochrome c reduction) in fMLF/CB-activated human neutrophils
# Type: cell-based
# Details: Neutrophil, 10 μM compound, fMLF/CB stimulation, mean ± SEM (n = 3–5)
# Experimental: (§1) The study involving neutrophils was approved by the Institutional Review Board of Chang Gung Memorial Hospital under IRB number: 201902217A3 and was conducted in accordance with the principles of the Declaration of Helsinki. Healthy volunteers aged 20–35 years provided signed informed consents for blood collection. Isolation of neutrophils was done using dextran sedimentation, Ficoll-Hypaque density gradient centrifugation, and hypotonic haemolysis. For the anti-inflammatory studies, neutrophils were suspended in Hank’s balanced salt solution (HBSS) containing 1 mM Ca^2+ at a pH of 7.4[72].
# The reduction of ferricytochrome c was utilised to measure the production of SO anions in activated human neutrophils. […] The neutrophils were then stimulated with fMLF (0.1 μM) and CB (1 μg/mL) for 13 min. […] LY294002 was used as a positive control.
row,Compound,inhibition at 10 µM
1,"COc1ccc(C(=O)/C=C/c2ccc(Cl)cc2)cc1 [Compound 14a, (E)-3-(4-Chlorophenyl)-1-(4-methoxyphenyl)prop-2-en-1-one]",58.9 ± 3.26%
2,"CCOc1ccccc1C(=O)/C=C/c1ccccc1C(F)(F)F [Compound 5, (E)-1-(2-Ethoxyphenyl)-3-(2-(trifluoromethyl)phenyl)prop-2-en-1-one]",68.3 ± 8.99%
3,"COc1ccc(C(=O)/C=C/c2cccc(Cl)c2)cc1 [Compound 22a, (E)-3-(3-Chlorophenyl)-1-(4-methoxyphenyl)prop-2-en-1-one]",65.2 ± 3.73%
4,"COc1ccc(C(=O)/C=C/c2ccc([N+](=O)[O-])cc2)cc1 [Compound 7a, (E)-1-(4-Methoxyphenyl)-3-(4-nitrophenyl)prop-2-en-1-one]",59.7 ± 1.41%
5,"CC(C)(C)C(=O)/C=C/c1ccc(Cl)cc1 [Compound 1, (E)-1-(4-Chlorophenyl)-4,4-dimethylpent-1-en-3-one]",23.4 ± 7.96%
6,"CC(C)(C)Oc1ccc(/C=C/C(=O)c2ccco2)cc1 [Compound 12, (E)-3-(4-(tert-Butoxy)phenyl)-1-(furan-2-yl)prop-2-en-1-one]",27.3 ± 2.07%
7,"O=C(/C=C/c1ccc([N+](=O)[O-])cc1)c1ccccn1 [Compound 7, (E)-3-(4-Nitrophenyl)-1-(pyridin-2-yl)prop-2-en-1-one]",94.5 ± 2.89%
8,"O=C(/C=C/c1cc(F)cc(F)c1)c1ccc(Cl)cc1 [Compound 23a, (E)-1-(4-Chlorophenyl)-3-(3,5-difluorophenyl)prop-2-en-1-one]",96.04 ± 0.09%
9,"COc1ccc(/C=C/C(=O)c2ccccc2C)cc1F [Compound 20, (E)-3-(3-Fluoro-4-methoxyphenyl)-1-(o-tolyl)prop-2-en-1-one]",49.8 ± 5.82%
10,"O=C(/C=C/c1ccc(Cl)cc1)c1ccc2ccccc2c1 [Compound 10a, (E)-3-(4-Chlorophenyl)-1-(naphthalen-2-yl)prop-2-en-1-one]",14.2 ± 6.87%
11,"CC(C)(C)C(=O)/C=C/c1ccc(Br)s1 [Compound 24, (E)-1-(5-Bromothiophen-2-yl)-4,4-dimethylpent-1-en-3-one]",13 ± 6.88%
12,"O=c1cc(N2CCOCC2)oc2c(-c3ccccc3)cccc12 [LY294002, reference compound]",102 ± 2.64%
13,"CC(C)(C)Oc1ccc(/C=C/C(=O)C(C)(C)C)cc1 [Compound 11, (E)-1-(4-(tert-Butoxy)phenyl)-4,4-dimethylpent-1-en-3-one]",16.8 ± 3.85%
14,"COc1ccc(/C=C/C(=O)C(C)(C)C)cc1F [Compound 19, (E)-1-(3-Fluoro-4-methoxyphenyl)-4,4-dimethylpent-1-en-3-one]",2.87 ± 2.8%

# Same assay, conditions: Neutrophil, fMLF/CB stimulation, mean ± SEM (n = 3–5)
row,IC50,Compound
1,6.09 ± 7.19 µM,"COc1ccc(C(=O)/C=C/c2ccc(Cl)cc2)cc1 [Compound 14a, (E)-3-(4-Chlorophenyl)-1-(4-methoxyphenyl)prop-2-en-1-one]"
2,1.81 ± 0.22 µM,"CCOc1ccccc1C(=O)/C=C/c1ccccc1C(F)(F)F [Compound 5, (E)-1-(2-Ethoxyphenyl)-3-(2-(trifluoromethyl)phenyl)prop-2-en-1-one]"
3,6.6 ± 0.6 µM,"COc1ccc(C(=O)/C=C/c2cccc(Cl)c2)cc1 [Compound 22a, (E)-3-(3-Chlorophenyl)-1-(4-methoxyphenyl)prop-2-en-1-one]"
4,6.9 ± 0.67 µM,"COc1ccc(C(=O)/C=C/c2ccc([N+](=O)[O-])cc2)cc1 [Compound 7a, (E)-1-(4-Methoxyphenyl)-3-(4-nitrophenyl)prop-2-en-1-one]"
5,4.35 ± 0.3 µM,"O=C(/C=C/c1ccc([N+](=O)[O-])cc1)c1ccccn1 [Compound 7, (E)-3-(4-Nitrophenyl)-1-(pyridin-2-yl)prop-2-en-1-one]"
6,2.03 ± 0.27 µM,"O=C(/C=C/c1cc(F)cc(F)c1)c1ccc(Cl)cc1 [Compound 23a, (E)-1-(4-Chlorophenyl)-3-(3,5-difluorophenyl)prop-2-en-1-one]"

# Test system: fMLF/cytochalasin B (CB)-activated human neutrophils
# Experiment: Elastase release in fMLF/CB-activated human neutrophils
# Type: cell-based
# Details: Homo sapiens, Neutrophil; 10 μM compound; fMLF/CB stimulation; mean ± SEM (n = 3–5)
# Experimental: as §1
# Neutrophils were subsequently stimulated with fMLF (0.1 μM) and CB (0.5 μg/mL) for 13 min. […] LY294002 was used as a positive control.
row,Compound,inhibition at 10 µM
1,"COc1ccc(C(=O)/C=C/c2ccc(Cl)cc2)cc1 [Compound 14a, (E)-3-(4-Chlorophenyl)-1-(4-methoxyphenyl)prop-2-en-1-one]",5.49 ± 4.32%
2,"CCOc1ccccc1C(=O)/C=C/c1ccccc1C(F)(F)F [Compound 5, (E)-1-(2-Ethoxyphenyl)-3-(2-(trifluoromethyl)phenyl)prop-2-en-1-one]",8.13 ± 3.43%
3,"COc1ccc(C(=O)/C=C/c2cccc(Cl)c2)cc1 [Compound 22a, (E)-3-(3-Chlorophenyl)-1-(4-methoxyphenyl)prop-2-en-1-one]",36.1 ± 6.48%
4,"COc1ccc(C(=O)/C=C/c2ccc([N+](=O)[O-])cc2)cc1 [Compound 7a, (E)-1-(4-Methoxyphenyl)-3-(4-nitrophenyl)prop-2-en-1-one]",63.8 ± 6.59%
5,"CC(C)(C)C(=O)/C=C/c1ccc(Cl)cc1 [Compound 1, (E)-1-(4-Chlorophenyl)-4,4-dimethylpent-1-en-3-one]",8.43 ± 4.28%
6,"CC(C)(C)Oc1ccc(/C=C/C(=O)c2ccco2)cc1 [Compound 12, (E)-3-(4-(tert-Butoxy)phenyl)-1-(furan-2-yl)prop-2-en-1-one]",19.2 ± 4.05%
7,"O=C(/C=C/c1ccc([N+](=O)[O-])cc1)c1ccccn1 [Compound 7, (E)-3-(4-Nitrophenyl)-1-(pyridin-2-yl)prop-2-en-1-one]",78.1 ± 0.36%
8,"O=C(/C=C/c1cc(F)cc(F)c1)c1ccc(Cl)cc1 [Compound 23a, (E)-1-(4-Chlorophenyl)-3-(3,5-difluorophenyl)prop-2-en-1-one]",83 ± 2.64%
9,"COc1ccc(/C=C/C(=O)c2ccccc2C)cc1F [Compound 20, (E)-3-(3-Fluoro-4-methoxyphenyl)-1-(o-tolyl)prop-2-en-1-one]",10.6 ± 2.28%
10,"O=C(/C=C/c1ccc(Cl)cc1)c1ccc2ccccc2c1 [Compound 10a, (E)-3-(4-Chlorophenyl)-1-(naphthalen-2-yl)prop-2-en-1-one]",33.2 ± 6.47%
11,"CC(C)(C)C(=O)/C=C/c1ccc(Br)s1 [Compound 24, (E)-1-(5-Bromothiophen-2-yl)-4,4-dimethylpent-1-en-3-one]",25.7 ± 5.36%
12,"O=c1cc(N2CCOCC2)oc2c(-c3ccccc3)cccc12 [LY294002, reference compound]",82.5 ± 3.76%
13,"CC(C)(C)Oc1ccc(/C=C/C(=O)C(C)(C)C)cc1 [Compound 11, (E)-1-(4-(tert-Butoxy)phenyl)-4,4-dimethylpent-1-en-3-one]",12.1 ± 3.43%
14,"COc1ccc(/C=C/C(=O)C(C)(C)C)cc1F [Compound 19, (E)-1-(3-Fluoro-4-methoxyphenyl)-4,4-dimethylpent-1-en-3-one]",3.9 ± 1.68%

# Same assay, conditions: Homo sapiens, Neutrophil; fMLF/CB stimulation; mean ± SEM (n = 3–5)
row,IC50,Compound
1,6.33 ± 1.15 µM,"COc1ccc(C(=O)/C=C/c2ccc([N+](=O)[O-])cc2)cc1 [Compound 7a, (E)-1-(4-Methoxyphenyl)-3-(4-nitrophenyl)prop-2-en-1-one]"
2,6.17 ± 0.1 µM,"O=C(/C=C/c1ccc([N+](=O)[O-])cc1)c1ccccn1 [Compound 7, (E)-3-(4-Nitrophenyl)-1-(pyridin-2-yl)prop-2-en-1-one]"
3,2.32 ± 0.26 µM,"O=C(/C=C/c1cc(F)cc(F)c1)c1ccc(Cl)cc1 [Compound 23a, (E)-1-(4-Chlorophenyl)-3-(3,5-difluorophenyl)prop-2-en-1-one]"

# Test system: not given
# Experiment: not given
# Details: not given
row,melting point,Compound
1,70.5 to 71.5 °C,"CCOc1ccccc1C(=O)/C=C/c1ccccc1C(F)(F)F [Compound 5, (E)-1-(2-Ethoxyphenyl)-3-(2-(trifluoromethyl)phenyl)prop-2-en-1-one]"
2,97 to 99 °C,"COc1ccc(C(=O)/C=C/c2cccc(Cl)c2)cc1 [Compound 22a, (E)-3-(3-Chlorophenyl)-1-(4-methoxyphenyl)prop-2-en-1-one]"
3,85 to 85.5 °C,"CC(C)(C)C(=O)/C=C/c1ccc(Cl)cc1 [Compound 1, (E)-1-(4-Chlorophenyl)-4,4-dimethylpent-1-en-3-one]"
4,153 to 155 °C,"O=C(/C=C/c1ccc([N+](=O)[O-])cc1)c1ccccn1 [Compound 7, (E)-3-(4-Nitrophenyl)-1-(pyridin-2-yl)prop-2-en-1-one]"
5,123.6 to 124 °C,"O=C(/C=C/c1cc(F)cc(F)c1)c1ccc(Cl)cc1 [Compound 23a, (E)-1-(4-Chlorophenyl)-3-(3,5-difluorophenyl)prop-2-en-1-one]"
6,69 to 70 °C,"COc1ccc(/C=C/C(=O)c2ccccc2C)cc1F [Compound 20, (E)-3-(3-Fluoro-4-methoxyphenyl)-1-(o-tolyl)prop-2-en-1-one]"
7,162 to 164 °C,"O=C(/C=C/c1ccc(Cl)cc1)c1ccc2ccccc2c1 [Compound 10a, (E)-3-(4-Chlorophenyl)-1-(naphthalen-2-yl)prop-2-en-1-one]"
8,84.6 °C,"COc1ccc(/C=C/C(=O)C(C)(C)C)cc1F [Compound 19, (E)-1-(3-Fluoro-4-methoxyphenyl)-4,4-dimethylpent-1-en-3-one]"

row,Compound,melting point
1,"CC(C)(C)Oc1ccc(/C=C/C(=O)c2ccco2)cc1 [Compound 12, (E)-3-(4-(tert-Butoxy)phenyl)-1-(furan-2-yl)prop-2-en-1-one]",132.8 to 134.8 °C
2,"CC(C)(C)Oc1ccc(/C=C/C(=O)C(C)(C)C)cc1 [Compound 11, (E)-1-(4-(tert-Butoxy)phenyl)-4,4-dimethylpent-1-en-3-one]",110 to 111 °C
